Experimental data reported in ChEMBL document CHEMBL5113402, “Inhibition of cytochrome P450 monooxygenase-catalyzed oxylipin formation by flavonoids: Evaluation of structure-activity relationship towards CYP4F2-selective inhibitors” (Eur J Med Chem, 2022).
pIC50: −log10 of the molar value. Values after ≈ are worked out from the molar mass of the structure shown.

Columns and labels:
[1] = target: CYP450 (20-HETE formation) (Homo sapiens, UniProt P04798+P05177+P05181+P08684+P10632+P10635+P11509+P11712+P13584+P20813+P20815+P20853+P24462+P24903+P33260+P33261+P51589+P78329+P98187+Q02928+Q08477+Q16678+Q16696+Q5TCH4+Q6VVX0+Q7Z449+Q8TAV3+Q96SQ9+Q9HB55); assay: Inhibition of CYP450 in human liver microsomes assessed as inhibition of 20-HETE formation at 10 uM in presence of arachidonic acid and NADPH by multi-enzyme assay based LC-MS/MS analysis relative to control; type: ADME, Microsome; details: probe arachidonic acid
[2] = target: CYP450 (EpETrE formation) (Homo sapiens, UniProt P04798+P05177+P05181+P08684+P10632+P10635+P11509+P11712+P13584+P20813+P20815+P20853+P24462+P24903+P33260+P33261+P51589+P78329+P98187+Q02928+Q08477+Q16678+Q16696+Q5TCH4+Q6VVX0+Q7Z449+Q8TAV3+Q96SQ9+Q9HB55); assay: Inhibition of CYP450 in human liver microsomes assessed as inhibition of EpETrE formation at 10 uM in presence of arachidonic acid and NADPH by multi-enzyme assay based LC-MS/MS analysis relative to control; type: ADME, Microsome; details: probe arachidonic acid
Homo sapiens = species: Homo sapiens; assay: Selectivity index, log ratio of Inhibition of CYP450 in human liver microsomes assessed as inhibition of EpETrE formation in presence of arachidonic acid to Inhibition of CYP450 in human liver microsomes assessed as inhibition of 20-HETE formation in presence of arachidonic acid
Cytochrome P450 4F2 = target: T1, Cytochrome P450 4F2 (Homo sapiens, UniProt P78329); assay: Inhibition of recombinant CYP4F2 (unknown origin) incubated for 5 to 15 mins in presence of NADPH by LC-MS/MS analysis; type: ADME
T1 sequence (P78329 whole entry): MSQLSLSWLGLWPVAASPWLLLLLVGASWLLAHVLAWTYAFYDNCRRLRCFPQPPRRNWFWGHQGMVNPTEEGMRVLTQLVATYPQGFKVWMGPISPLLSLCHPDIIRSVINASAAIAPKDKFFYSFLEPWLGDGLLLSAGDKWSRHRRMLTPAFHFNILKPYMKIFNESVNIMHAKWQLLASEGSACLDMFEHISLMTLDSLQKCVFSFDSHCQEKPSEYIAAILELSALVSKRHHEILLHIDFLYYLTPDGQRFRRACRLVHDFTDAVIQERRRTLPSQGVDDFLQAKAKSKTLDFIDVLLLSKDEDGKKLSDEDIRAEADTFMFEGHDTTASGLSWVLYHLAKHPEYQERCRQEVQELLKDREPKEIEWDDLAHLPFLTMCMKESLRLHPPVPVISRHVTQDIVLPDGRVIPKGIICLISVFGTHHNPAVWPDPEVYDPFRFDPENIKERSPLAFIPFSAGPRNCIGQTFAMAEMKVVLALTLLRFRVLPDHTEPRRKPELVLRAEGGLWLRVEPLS

[3] = Solubility of the compound in phospahte-buffered saline buffer at pH 7.4 by shake flask method; type: physicochemical; details: phosphate-buffered saline

Structure (SMILES)	inhibition at 10 µM [1] [%]	inhibition at 10 µM [2] [%]	log(ratio) (Homo sapiens)	solubility thermodynamic [3] [µM]	pIC50 (Cytochrome P450 4F2)
O=c1cc(-c2ccccc2O)oc2ccccc12	< 15	24	-0.29		
COc1ccc2c(=O)cc(-c3ccccc3)oc2c1 [7-METHOXYFLAVONE]	< 15	50			
COc1ccccc1-c1cc(=O)c2ccccc2o1	< 15	37	-0.4		
O=c1cc(-c2ccc(Br)cc2)oc2ccccc12	35	< 15	0.4		
COc1ccccc1-c1coc2ccccc2c1=O	< 15	< 15	-0.15		
O=c1cc(-c2ccccc2)oc2cc(O)c(O)c(O)c12 [BAICALEIN]	< 15	32	-0.36		
Cc1ccc(-c2cc(=O)c3ccccc3o2)cc1	32	26	0.07		
CC(=O)OC[C@@]12CC[C@@]3(C)[C@H]4C(=CC[C@]3(C)[C@H]1[C@H](O)C[C@H]2C(C)C)[C@@]1(C)CCC(=O)C(C)(C)[C@@H]1C[C@@H]4O [RUBIARBONONE C]					5.38
COc1cc2oc(-c3ccccc3)cc(=O)c2c(OC)c1OC [BAICALEIN TRIMETHYL ETHER]	< 15	< 15	-0.09		
O=c1c(-c2ccccc2)coc2ccccc12 [ISOFLAVONE]	< 15	< 15	0.19		
O=c1cc(-c2ccc(O)c(O)c2)oc2ccccc12	32	19	0.17		
COc1ccc2oc(-c3ccc(OC)c(OC)c3)cc(=O)c2c1	< 15	< 15	0.07		
COc1ccc(-c2coc3cc(O)cc(O)c3c2=O)cc1 [BIOCHANIN]	25	< 15	0.25		
COc1cccc(-c2cc(=O)c3cc(OC)ccc3o2)c1 [6,3'-DIMETHOXYFLAVONE]	< 15	< 15	-0.09		
O=c1cc(-c2ccc(Br)cc2)oc2ccc(O)cc12	< 15	< 15	0		

More lines, main results first:

inhibition at 10 µM [1] [%]	inhibition at 10 µM [2] [%]	log(ratio) (Homo sapiens)	solubility thermodynamic [3] [µM]	Structure (SMILES)	pIC50 (Cytochrome P450 4F2)
< 15	35			O=c1cc(-c2ccccc2)oc2cc(O)ccc12 [7-HYDROXYFLAVONE]	
27	< 15	0.22		COc1ccc(-c2coc3ccccc3c2=O)cc1OC	
< 15	< 15	0		O=c1cc(-c2ccccc2)oc2ccccc12 [FLAVONE]	
18	< 15	0.08		COc1ccc(-c2cc(=O)c3ccccc3o2)cc1OC [3',4'-DIMETHOXYFLAVONE]	
< 15	< 15	0		COc1ccc(-c2cc(=O)c3cc(OC)ccc3o2)cc1 [6,4'-DIMETHOXYFLAVONE]	
< 15	15	-0.01		O=c1cc(-c2ccccc2)oc2ccc(O)cc12 [6-HYDROXYFLAVONE]	
< 15	< 15	0.18		COc1ccc(-c2coc3ccccc3c2=O)cc1	
17	< 15	0.16		COc1ccc2oc(-c3ccc(Br)cc3)cc(=O)c2c1	
39	< 15	0.49		O=c1c(-c2ccc(O)cc2)coc2cc(O)cc(O)c12 [GENISTEIN]	
26	< 15	0.29		O=c1cc(-c2ccc(O)c(O)c2)oc2ccc(O)cc12	
< 15	< 15	0.05		O=c1cc(-c2ccc(O)cc2)oc2ccccc12	
< 15	16	-0.05		COc1ccc2oc(-c3ccccc3)cc(=O)c2c1 [6-METHOXYFLAVONE]	
55	< 15	0.59	1 (≈ 0.32 µg/mL)	COc1ccc2oc(-c3ccc(C(F)(F)F)cc3)cc(=O)c2c1	
27	20	0.13		COc1ccc(-c2cc(=O)c3ccccc3o2)cc1 [4'-METHOXYFLAVONE]	
< 15	< 15	0		COc1cccc(-c2coc3ccccc3c2=O)c1	
